Laboratory results as given in ChEMBL document CHEMBL1138794, “Influence of the linker in bispyridium compounds on the inhibition of human choline kinase” (J Med Chem, 2004).

What was measured:
[1] = biological target: Choline kinase alpha (Homo sapiens, UniProt P35790); experiment: Inhibitory activity against human choline kinase enzyme
[2] = test system: HT-29; experiment: Antiproliferative activity was determined using HT-29 human colon cancer cell line; format: functional, cell-based

Sequence of Choline kinase alpha (P35790 whole entry): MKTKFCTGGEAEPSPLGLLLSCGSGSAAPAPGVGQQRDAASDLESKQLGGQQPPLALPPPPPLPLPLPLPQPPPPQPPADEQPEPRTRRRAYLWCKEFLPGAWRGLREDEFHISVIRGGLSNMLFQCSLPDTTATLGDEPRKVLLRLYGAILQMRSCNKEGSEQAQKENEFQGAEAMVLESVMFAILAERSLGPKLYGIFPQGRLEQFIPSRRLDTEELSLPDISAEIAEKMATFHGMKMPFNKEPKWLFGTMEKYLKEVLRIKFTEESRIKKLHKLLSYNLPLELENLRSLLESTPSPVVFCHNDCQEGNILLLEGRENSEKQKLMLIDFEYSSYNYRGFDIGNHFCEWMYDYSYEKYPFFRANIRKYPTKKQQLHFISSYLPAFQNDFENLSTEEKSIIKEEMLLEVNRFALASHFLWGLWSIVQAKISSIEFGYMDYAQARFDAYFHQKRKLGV

`c1c[n+](C[C@H]2C[C@@H]2C[n+]2ccc(N3CCCC3)cc2)ccc1N1CCCC1` was tested, and the IC50 [1] was over 100 µM and the IC50 [2] was over 100 µM.

`CN(c1ccc(Cl)cc1)c1cc[n+](C[C@H]2C[C@@H]2C[n+]2ccc(N(C)c3ccc(Cl)cc3)cc2)cc1` gave an IC50 [1] of 48.2 µM and an IC50 [2] of 24.3 µM.

`CN(c1ccc(Cl)cc1)c1cc[n+](Cc2ccc(-c3ccc(C[n+]4ccc(N(C)c5ccc(Cl)cc5)cc4)cc3)cc2)cc1` showed an IC50 [1] of 1.8 µM and an IC50 [2] of 0.49 µM.

For `c1cc(-c2ccc(C[n+]3ccc(N4CCCCC4)cc3)cc2)ccc1C[n+]1ccc(N2CCCCC2)cc1`, the IC50 [1] was 8.8 µM and the IC50 [2] was 4.2 µM.

Work on `CN(c1ccccc1)c1cc[n+](Cc2cccc(C[n+]3ccc(N(C)c4ccccc4)cc3)c2)cc1` yielded an IC50 [1] of 37.5 µM and an IC50 [2] of 5.1 µM.

`c1cc(C[n+]2ccc(N3CCCCC3)cc2)cc(C[n+]2ccc(N3CCCCC3)cc2)c1` showed an IC50 [1] of 52.8 µM and an IC50 [2] of 43 µM.

`c1cc(C[n+]2ccc(N3CCCCC3)cc2)cc(-c2cccc(C[n+]3ccc(N4CCCCC4)cc3)c2)c1` showed an IC50 [2] of 1.6 µM.

For `CN(c1cc[n+](Cc2ccc(C[n+]3ccc(N(C)c4cc(Cl)cc(Cl)c4)cc3)cc2)cc1)c1cc(Cl)cc(Cl)c1`, the IC50 [1] was 9.7 µM and the IC50 [2] was 2.9 µM.

`CN(c1cc[n+](Cc2cccc(C[n+]3ccc(N(C)c4cc(Cl)cc(Cl)c4)cc3)c2)cc1)c1cc(Cl)cc(Cl)c1` gave an IC50 [1] of 8.4 µM and an IC50 [2] of 4 µM.

Work on `c1cc(C[n+]2ccc(N3CCCCC3)cc2)ccc1C[n+]1ccc(N2CCCCC2)cc1` yielded an IC50 [1] of 37.7 µM and an IC50 [2] of over 100 µM.

Compound `c1cc(C[n+]2ccc(N3CCCC3)cc2)cc(C[n+]2ccc(N3CCCC3)cc2)c1` has an IC50 [1] of 84.2 µM and an IC50 [2] of 50 µM.

Work on `CN(c1ccc(Cl)cc1)c1cc[n+](Cc2cccc(C[n+]3ccc(N(C)c4ccc(Cl)cc4)cc3)c2)cc1` yielded an IC50 [1] of 7.2 µM and an IC50 [2] of 3.3 µM.

In the case of `CN(c1cc[n+](C[C@H]2C[C@@H]2C[n+]2ccc(N(C)c3cc(Cl)cc(Cl)c3)cc2)cc1)c1cc(Cl)cc(Cl)c1`, the IC50 [1] is reported as over 100 µM and the IC50 [2] is reported as 7.5 µM.

Work on `CN(c1ccccc1)c1cc[n+](Cc2ccc(C[n+]3ccc(N(C)c4ccccc4)cc3)cc2)cc1` yielded an IC50 [1] of 15 µM and an IC50 [2] of 6.81 µM.

For `CN(c1ccc(Cl)cc1)c1cc[n+](Cc2ccc(C[n+]3ccc(N(C)c4ccc(Cl)cc4)cc3)cc2)cc1`, the IC50 [1] was 2.9 µM and the IC50 [2] was 3.5 µM.

For `CN(c1ccccc1)c1cc[n+](Cc2ccc(-c3ccc(C[n+]4ccc(N(C)c5ccccc5)cc4)cc3)cc2)cc1`, the IC50 [1] was 4.3 µM and the IC50 [2] was 2 µM.

`CN(c1cc[n+](Cc2cccc(-c3cccc(C[n+]4ccc(N(C)c5cc(Cl)cc(Cl)c5)cc4)c3)c2)cc1)c1cc(Cl)cc(Cl)c1` was tested, and the IC50 [1] was 2.6 µM and the IC50 [2] was 1.8 µM.

With `CN(c1ccccc1)c1cc[n+](Cc2cccc(-c3cccc(C[n+]4ccc(N(C)c5ccccc5)cc4)c3)c2)cc1` the IC50 [1] was 0.4 µM and the IC50 [2] was 2.2 µM.

In the case of `CN(c1ccccc1)c1cc[n+](C[C@H]2C[C@@H]2C[n+]2ccc(N(C)c3ccccc3)cc2)cc1`, the IC50 [1] is reported as over 100 µM and the IC50 [2] is reported as over 100 µM.

`c1cc(-c2ccc(C[n+]3ccc(N4CCCC4)cc3)cc2)ccc1C[n+]1ccc(N2CCCC2)cc1` showed an IC50 [1] of 11.1 µM and an IC50 [2] of 6.1 µM.

`c1c[n+](C[C@H]2C[C@@H]2C[n+]2ccc(N3CCCCC3)cc2)ccc1N1CCCCC1` showed an IC50 [1] of 98 µM and an IC50 [2] of 99 µM.

In the case of `c1cc(C[n+]2ccc(N3CCCC3)cc2)ccc1C[n+]1ccc(N2CCCC2)cc1`, the IC50 [1] is reported as 24 µM and the IC50 [2] is reported as over 100 µM.
